Consider 58 compounds from patent publication US20100267712A1, “ISOINDOLINE COMPOUNDS FOR THE TREATMENT OF SPINAL MUSCULAR ATROPHY AND OTHER USES” (The United States of America, as represented by the …, priority 2007, published 2010).

Experiment [1] deals with SMN2-linked luciferase-reporter gene construct. Nature of the experiment: SMN Splice Reporter Assay (SMN2-linked luciferase reporter). The format is cell-based. Conditions: for EC50: cervical carcinoma cell lines, SMN2 splice luciferase reporter; for Fold Increase: fold-increase of luciferase over baseline reading of transformed cells without any test compound. An outline of the steps: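 Cervical carcinoma cells carrying an SMN2-luciferase splicing reporter, in-frame only with exon 7 inclusion, were treated with compound. Luciferase activity reported as fold increase over untreated transformed cells, with EC50 derived.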
(A reporter such as luciferase makes a cellular process visible.)

The test system of experiment [2] is translational stop codon read-through, human SMN2 open reading frame-luciferase. Nature of the experiment: Translational read-through luciferase reporter assay (luciferase preceded by the open reading frame of the human SMN2 gene). The format is cell-based. The source says:
This assay was similar in design to that described in WO 01/44516 A2. This was a cell-based luciferase reporter assay designed to detect translational read-through via insertion of a translational stop codon within the coding sequence that includes luciferase. In the presence of compounds that promote read-through of translational stop codons, active luciferase was produced and detected via chemiluminescence. Compounds of the invention typically were active in three versions of this assay: luciferase reporter containing a UGA stop codon, luciferase reporter containing a UAG stop codon, which is the first stop codon downstream of the improper splice junction between exons 6 and 8 in the human SMN2 transcript, and luciferase preceded by the open reading frame of the human SMN2 gene.

Regarding `O=C1c2ccccc2CN1c1ccc2c(c1)OCCO2` [Example 116069], in experiment [1], the EC50 amounted to 95 nM and the “Fold Increase” value was 1.348. In experiment [2], this compound came in with an EC50 of 2440 nM and a maximal fold induction of 1.97.

In the case of `COc1ccc2c(c1)C(=O)N(c1ccc3c(c1)OCCO3)C2` [Example 116239], in experiment [1], the EC50 stood at 20 nM and the “Fold Increase” value was determined as 1.228. In experiment [2], this compound showed an EC50 of 421 nM and a maximal fold induction of 2.02.

Take `COc1ccc2c(c1)C(=O)N(c1ccc3c(c1)OC(C)(C)O3)C2` [Example 116566]: in experiment [1], the EC50 amounted to 9 nM and the “Fold Increase” value was 1.308. In experiment [2], this compound gave an EC50 of 4180 nM and a maximal fold induction of 1.36. Taken in the same sequence, the figures for `Cn1ccc2cc(N3Cc4cc5c(cc4C3=O)OCCO5)ccc21` [Example 118275] were 14 nM, 1.484, 2090 nM and 1.28.

Turning to `COc1ccc2c(c1)C(=O)N(c1ccc3ccoc3c1)C2` [Example 118740], in experiment [1], the EC50 was found to be 22 nM and the “Fold Increase” value came out at 1.388. In addition, in experiment [2], the EC50 was found to be 220 nM and the maximal fold induction is 1.67. Taken in the same sequence, the figures for `COc1ccc2c(c1)C(=O)N(c1ccc3c(ccn3C(C)C)c1)C2` [Example 119518] were 71 nM, 1.617, 2800 nM and 1.2.

Turning to `COc1ccc2c(c1)C(=O)N(c1ccc3c(N(C)C)ccnc3c1)C2` [Example 124037], in experiment [1], the EC50 came to 5970 nM and the “Fold Increase” value came to 1.377.

For `COc1ccc2c(c1)C(=O)N(c1ccc3c(C)ccnc3c1)C2` [Example 124038], in experiment [1], the EC50 amounted to 26 nM and the “Fold Increase” value is on record as 1.509.

Turning to `Cn1ccc2ccc(N3Cc4ccc(O)cc4C3=O)cc21` [Example 124039], in experiment [1], a half-maximal response (EC50) required 520 nM and the “Fold Increase” value stood at 1.893. In the case of `Cc1cc2cc(N3Cc4ccc(S(C)(=O)=O)cc4C3=O)ccc2n1C` [Example 124166], the “Fold Increase” value in experiment [1] was determined as 1.227.

Consider `CCOc1ccc2c(c1)C(=O)N(c1ccc3ccn(C)c3c1)C2` [Example 124167], for which, in experiment [1], it took 69 nM to reach a half-maximal effect (EC50) and the “Fold Increase” value amounted to 1.759. With `Cn1ccc2ccc(N3Cc4ccc(S(C)(=O)=O)cc4C3=O)cc21` [Example 124168], the “Fold Increase” value in experiment [1] was found to be 1.462.

`CCc1ccc2c(c1)C(=O)N(c1ccc3ccn(C)c3c1)C2` [Example 124169]: in experiment [1], the EC50 is 152 nM and the “Fold Increase” value came out at 1.673. `COc1ccc2c(c1)C(=O)N(c1ccc3ccc(O)nc3c1)C2` [Example 124170]: the “Fold Increase” value in experiment [1] is 1.102. On to `CCCOc1ccc2c(c1)C(=O)N(c1ccc3ccn(C)c3c1)C2` [Example 124325], for which, in experiment [1], the EC50 was determined as 145 nM and the “Fold Increase” value was determined as 1.69. In the same order, the values of `CCc1cc2cc(N3Cc4ccc(OC)cc4C3=O)ccc2n1C` [Example 124327] are 560 nM and 1.361. As to `COCc1cc2cc(N3Cc4ccc(OC)cc4C3=O)ccc2n1C` [Example 124328], the “Fold Increase” value in experiment [1] is 1.305. In the case of `CCCc1ccc2c(c1)C(=O)N(c1ccc3ccn(C)c3c1)C2` [Example 124428], in experiment [1], the EC50 amounted to 151 nM and the “Fold Increase” value stood at 1.692. For `COc1ccc2c(c1)C(=O)N(c1ccc3ccc(C)nc3c1)C2` [Example 124430], in experiment [1], the EC50 was 46 nM and the “Fold Increase” value came to 1.411.

Take `Cn1ccc2ccc(N3Cc4ccc(N5CCOCC5)cc4C3=O)cc21` [Example 124539]: the “Fold Increase” value in experiment [1] is 1.652. In the case of `CN1CCN(c2ccc3c(c2)C(=O)N(c2ccc4ccn(C)c4c2)C3)CC1` [Example 124649], the “Fold Increase” value in experiment [1] was 1.119.

`Cn1ccc2ccc(N3Cc4ccc(N5CCCCC5)cc4C3=O)cc21` [Example 124650]: in experiment [1], the EC50 was found to be 96 nM and the “Fold Increase” value was found to be 1.684. For the compound `COc1ccc2c(c1)C(=O)N(c1ccc3c(c1)cc1n3CCC1)C2` [Example 124651], in experiment [1], the EC50 stood at 116 nM and the “Fold Increase” value was 1.452. As to `O=C1c2cc(N3CCCC3)ccc2CN1c1ccc2ncccc2c1` [Example 124770], in experiment [1], the EC50 is 24 nM and the “Fold Increase” value came to 1.948.

Take `COc1ccc2c(c1)C(=O)N(c1ccc3c(c1)cc(CN(C)C)n3C)C2` [Example 124772]: the “Fold Increase” value in experiment [1] was 1.148.

On to `COc1ccc2c(c1)C(=O)N(c1ccc3c(c1)cc(C(C)C)n3C)C2` [Example 124773], for which, in experiment [1], the “Fold Increase” value was determined as 1.255. On to `COc1ccc2c(c1)C(=O)N(c1ccc3cc4n(c3c1)CCC4)C2` [Example 124774], for which, in experiment [1], the EC50 is 327 nM and the “Fold Increase” value is listed as 1.369.

Consider `Cn1ccc2ccc(N3Cc4ccc(NC(=O)c5ccccc5)cc4C3=O)cc21` [Example 124775], for which, in experiment [1], the “Fold Increase” value was 1.216. On the same count and under the same terms, next, `CC(C)C(=O)Nc1ccc2c(c1)C(=O)N(c1ccc3ccn(C)c3c1)C2` [Example 124776]: 2.069. Consider `Cn1ccc2ccc(N3Cc4ccc(OC5CCCC5)cc4C3=O)cc21` [Example 124860], for which, in experiment [1], it took 135 nM to reach a half-maximal effect (EC50) and the “Fold Increase” value is on record as 1.582.

With `Cc1cc2ccc(N3Cc4ccc(Cl)cc4C3=O)cc2n1C` [Example 124861], in experiment [1], the “Fold Increase” value was determined as 1.268. For the compound `Cn1ccc2cc(N3Cc4ccc(NC(=O)c5ccccc5)cc4C3=O)ccc21` [Example 124862], the “Fold Increase” value in experiment [1] stood at 1.07. Still for that read-out and setting: the result for `CC(C)C(=O)Nc1ccc2c(c1)C(=O)N(c1ccc3c(ccn3C)c1)C2` [Example 124863] reads 1.251. Take `CC(C)C(=O)Nc1ccc2c(c1)C(=O)N(c1ccc3c(ccn3C)c1)C2` [Example 124864]: in experiment [1], the EC50 was 277 nM and the “Fold Increase” value came to 1.519. Regarding `Cn1ccc2ccc(N3Cc4ccc(NS(C)(=O)=O)cc4C3=O)cc21` [Example 124977], in experiment [1], the “Fold Increase” value was 1.061. With `Cc1cc2ccc(N3Cc4ccc(-c5ccccc5)cc4C3=O)cc2n1C` [Example 124978], in experiment [1], the “Fold Increase” value was 1.115. The same measure, in the same setting: the result for `COc1ccc2c(c1)C(=O)N(c1ccc3c(c1)cc(-c1ccccc1)n3C)C2` [Example 124979] reads 1.378. Same read-out and setting: the result for `Cn1ccc2cc(N3Cc4ccc(NS(C)(=O)=O)cc4C3=O)ccc21` [Example 124980] reads 1.534; that for `Cn1ccc2ccc(N3Cc4ccc(NC=O)cc4C3=O)cc21` [Example 124981], 1.638. The same measure, in the same setting: the result for `CCCOc1ccc2c(c1)C(=O)N(c1ccc3cc(C)n(C)c3c1)C2` [Example 124982] reads 1.221; that for `CCOc1ccc2c(c1)C(=O)N(c1ccc3cc(C)n(C)c3c1)C2` [Example 124983], 1.305. For `Cc1cc2ccc(N3Cc4ccc(O)cc4C3=O)cc2n1C` [Example 124984], the “Fold Increase” value in experiment [1] is reported as 1.401. Same read-out and setting: the result for `Cc1cc2ccc(N3Cc4ccc(-c5cccnc5)cc4C3=O)cc2n1C` [Example 125093] reads 1.082. Take `CC(C)Oc1ccc2c(c1)C(=O)N(c1ccc3cc[nH]c3c1)C2` [Example 125095]: in experiment [1], a half-maximal response (EC50) required 3 nM and the “Fold Increase” value is recorded as 1.134. In the same order, the values of `Cn1ccc2cc(N3Cc4ccc(NC=O)cc4C3=O)ccc21` [Example 125096] are 44 nM and 1.371. In the same order, the values of `COc1ccc2c(c1)C(=O)N(c1ccc3cc(C)[nH]c3c1)C2` [Example 125097] are 50 nM and 1.347. In the same order, the values of `Cc1cc2ccc(N3Cc4ccc(OC(C)C)cc4C3=O)cc2n1C` [Example 125098] are 134 nM and 1.251. As to `CC(=O)Nc1ccc2c(c1)C(=O)N(c1ccc3cc[nH]c3c1)C2` [Example 125269], in experiment [1], the EC50 was 15 nM and the “Fold Increase” value turned out to be 1.416. Taken in the same sequence, the figures for `CC(C)n1ccc2cc(N3Cc4ccc(N(C)C)cc4C3=O)ccc21` [Example 125271] were 22 nM and 1.285.

Take `CC(C)n1ccc2cc(N3Cc4ccc(N5CCCC5)cc4C3=O)ccc21` [Example 125384]: the “Fold Increase” value in experiment [1] is recorded as 1.091. Same read-out and setting: the result for `Cc1cc2cc(N3Cc4ccc(Br)cc4C3=O)ccc2n1C(C)C` [Example 125385] reads 1.454; that for `CCCc1ccc2c(c1)C(=O)N(c1ccc3c(ccn3C(C)C)c1)C2` [Example 125386], 1.037. As for `CN(C)c1ccc2c(c1)C(=O)N(c1ccc3cc[nH]c3c1)C2` [Example 125600], in experiment [1], the EC50 is 4 nM and the “Fold Increase” value amounted to 1.405. On to `CCCc1ccc2c(c1)C(=O)N(c1ccc3c(c1)cc(C)n3C(C)C)C2` [Example 125601], for which the “Fold Increase” value in experiment [1] amounted to 1.027. Same read-out and setting: the result for `Cc1cc2cc(N3Cc4ccc(N(C)C)cc4C3=O)ccc2n1C(C)C` [Example 125602] reads 1.139; that for `Cc1cc2cc(N3Cc4ccc(N5CCCC5)cc4C3=O)ccc2n1C(C)C` [Example 125603], 0.995; that for `CC(=O)Nc1ccc2c(c1)C(=O)N(c1ccc3c(c1)cc(C)n3C(C)C)C2` [Example 125822], 1.329. Consider `CC(=O)Nc1ccc2c(c1)C(=O)N(c1ccc3c(ccn3C(C)C)c1)C2` [Example 126111], for which, in experiment [1], it took 63 nM to reach a half-maximal effect (EC50) and the “Fold Increase” value is given as 1.34.

In general, EC50 refers to the concentration that produces a half-maximal response. Low values mean a more potent agent, high ones a less potent agent. A word on the maximal fold induction: it is the signal under treatment as a multiple of the control signal.
